Assay [1] has as its target BRD4 (Homo sapiens, UniProt O60885). The experiment in a line: Fluorescence anisotropy (FA) binding assay, BRD4. The method, then: (§1) Fluorescence Anisotropy (FA) Binding Assays.
(§2) FA assays were performed as described in Chung et al., J. Med Chem., 2011 54(11): 3827-38 except that protein concentrations were 125 nM and plates were read on a Spectramax M5 plate reader.

The target of assay [2] is BRD2 (Homo sapiens, UniProt P25440). As to the kind of experiment: Fluorescence anisotropy (FA) binding assay, BRD2. The method, then:
as §1, §2
(In general: Fluorescence polarisation rises when a labelled molecule tumbles more slowly, as on binding a larger partner.)

Assay [3] deals with BRD3 (Homo sapiens, UniProt Q15059). As to the kind of experiment: Fluorescence anisotropy (FA) binding assay, BRD3. The protocol: as §1, §2
BRD3, sequence (Q15059 whole entry): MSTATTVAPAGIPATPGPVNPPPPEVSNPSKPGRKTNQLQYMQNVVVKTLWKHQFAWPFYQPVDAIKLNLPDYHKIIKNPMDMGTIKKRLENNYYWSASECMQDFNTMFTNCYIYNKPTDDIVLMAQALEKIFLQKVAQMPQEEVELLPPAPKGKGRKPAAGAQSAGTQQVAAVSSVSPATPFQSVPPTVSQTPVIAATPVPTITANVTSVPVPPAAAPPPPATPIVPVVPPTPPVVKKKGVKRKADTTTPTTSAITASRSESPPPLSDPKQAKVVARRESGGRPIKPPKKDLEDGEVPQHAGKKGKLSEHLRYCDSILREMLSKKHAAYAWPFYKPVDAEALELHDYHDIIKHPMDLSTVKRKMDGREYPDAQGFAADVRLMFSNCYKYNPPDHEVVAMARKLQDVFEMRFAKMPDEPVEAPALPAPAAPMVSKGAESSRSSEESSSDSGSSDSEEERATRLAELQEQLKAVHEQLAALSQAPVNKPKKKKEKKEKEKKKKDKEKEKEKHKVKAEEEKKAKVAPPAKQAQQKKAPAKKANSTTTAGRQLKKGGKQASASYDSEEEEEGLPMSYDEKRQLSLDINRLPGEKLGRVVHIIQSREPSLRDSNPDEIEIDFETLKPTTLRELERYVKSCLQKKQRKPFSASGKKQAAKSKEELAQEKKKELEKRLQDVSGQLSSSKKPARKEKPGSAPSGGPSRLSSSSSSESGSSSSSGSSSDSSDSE
Setting [4] is: BRD4, protein 125 nM, read-out: IC50 range (FA assay) BRD4, BRD-N monomers.
The mark [5] stands for this setting: BRD2, protein 125 nM, read-out: IC50 range (FA assay) BRD2, BRD-N monomers.
The mark [6] stands for this setting: BRD3, protein 125 nM, read-out: IC50 range (FA assay) BRD3, BRD-N monomers.
Setting [7] is: BRD4, protein 125 nM, read-out: IC50 range (FA assay) BRD4, BRD-E monomers.
The mark [8] stands for this setting: BRD2, protein 125 nM, read-out: IC50 range (FA assay) BRD2, BRD-E monomers.
The mark [9] stands for this setting: BRD3, protein 125 nM, read-out: IC50 range (FA assay) BRD3, BRD-E monomers.

Read-outs that look alike come from different tables or passages of the source.

BRD2, sequence (P25440 whole entry): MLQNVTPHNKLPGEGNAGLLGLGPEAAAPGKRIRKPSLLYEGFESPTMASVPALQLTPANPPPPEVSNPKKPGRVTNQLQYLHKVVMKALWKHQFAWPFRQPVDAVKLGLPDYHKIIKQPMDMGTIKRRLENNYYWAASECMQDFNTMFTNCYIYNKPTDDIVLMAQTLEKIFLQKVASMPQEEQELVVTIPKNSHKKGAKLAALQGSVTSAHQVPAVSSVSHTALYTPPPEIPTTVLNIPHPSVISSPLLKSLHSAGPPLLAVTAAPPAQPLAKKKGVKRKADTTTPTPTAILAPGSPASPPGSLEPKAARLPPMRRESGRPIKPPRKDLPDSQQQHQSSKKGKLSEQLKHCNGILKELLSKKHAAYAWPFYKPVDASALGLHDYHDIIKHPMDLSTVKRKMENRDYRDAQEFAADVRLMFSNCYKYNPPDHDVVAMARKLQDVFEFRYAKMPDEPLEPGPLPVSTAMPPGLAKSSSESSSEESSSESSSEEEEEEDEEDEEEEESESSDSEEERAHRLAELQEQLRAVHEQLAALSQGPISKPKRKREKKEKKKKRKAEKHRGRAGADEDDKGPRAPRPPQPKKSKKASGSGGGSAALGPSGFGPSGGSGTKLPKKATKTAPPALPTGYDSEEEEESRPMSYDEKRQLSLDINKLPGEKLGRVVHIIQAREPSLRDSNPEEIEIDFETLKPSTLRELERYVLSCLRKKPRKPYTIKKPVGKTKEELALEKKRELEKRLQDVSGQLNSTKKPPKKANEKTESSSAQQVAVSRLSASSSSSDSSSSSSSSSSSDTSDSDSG

For `COc1ccc2c(c1)C(c1ccc(Cl)cc1)=N[C@@H](CC(=O)NCCc1ccc(O)c(O)c1)c1nnc(C)n1-2` [BRD-N-10, (S)-2-(6-(4-chlorophenyl)-8-methoxy-1-methyl-4H-benzo[f][1,2,4]triazolo[4,3-a][1,4]diazepin-4-yl)-N-(3,4-dihydroxyphenethyl)acetamide], the IC50 in assay [1] (setting [4]), in assay [2] (setting [5]) and in assay [3] (setting [6]) was 0.05 to 1 µM in each case.

Turning to `COc1ccc2c(c1)C(c1ccc(Cl)cc1)=N[C@@H](CC(=O)NCCCCCNC(=O)c1ccc(B(O)O)cc1)c1nnc(C)n1-2` [BRD-E-07, (4-((5-(2-((4S)-6-(4-chlorophenyl)-8-methoxy-1-methyl-4H-benzo[f][1,2,4]triazolo[4,3-a][1,4]diazepin-4-yl)acetamido)pentyl)carbamoyl)phenyl)-boronic acid], the half-maximal inhibitory concentration (IC50) in assay [1], in assay [2] and in assay [3] was 0.05 to 1 µM in each case.

Regarding `CCNC(=O)C[C@@H]1N=C(c2ccc(Cl)cc2)c2cc(OCC(=O)Nc3ccc(O)c(O)c3)ccc2-n2c(C)nnc21` [BRD-N-16, (S)-2-((6-(4-chlorophenyl)-4-(2-(ethylamino)-2-oxoethyl)-1-methyl-4H-benzo[f][1,2,4]triazolo[4,3-a][1,4]diazepin-8-yl)oxy)-N-(3,4-dihydroxyphenyl)acetamide], the IC50 in assay [1] (setting [4]), in assay [2] (setting [5]) and in assay [3] (setting [6]) was 0.05 to 1 µM each time.

As for `COc1ccc2c(c1)C(c1ccc(Cl)cc1)=N[C@@H](CC(=O)NCc1cccc(B(O)O)c1)c1nnc(C)n1-2` [BRD-E-10, (S)-(3-((2-(6-(4-chlorophenyl)-8-methoxy-1-methyl-4H-benzo[f][1,2,4]triazolo[4,3-a][1,4]diazepin-4-yl)acetamido)methyl)phenyl)boronic acid], the concentration for half-maximal inhibition (IC50) in assay [1], in assay [2] and in assay [3] was 0.05 to 1 µM throughout.

For `COc1ccc2c(c1)C(c1ccc(Cl)cc1)=N[C@@H](CC(=O)NCCNC(=O)Cc1ccc(O)c(O)c1)c1nnc(C)n1-2` [BRD-N-30, 2-((4S)-6-(4-chlorophenyl)-8-methoxy-1-methyl-4H-benzo[f][1,2,4]triazolo[4,3-a][1,4]diazepin-4-yl)-N-(2-(2-(3,4-dihydroxyphenyl)acetamido)ethyl)acetamide], the half-maximal inhibitory concentration (IC50) in assay [1] (setting [4]), in assay [2] (setting [5]) and in assay [3] (setting [6]) was 0.05 to 1 µM each time.

Turning to `COc1ccc2c(c1)C(c1ccc(Cl)cc1)=N[C@@H](CC(=O)NCCCCNC(=O)c1cccc(O)c1O)c1nnc(C)n1-2` [BRD-N-06, N-(4-(2-((4S)-6-(4-chlorophenyl)-8-methoxy-1-methyl-4H-benzo[f][1,2,4]triazolo[4,3-a][1,4]diazepin-4-yl)acetamido)butyl)-2,3-dihydroxybenzamide], the half-inhibitory concentration (IC50) fell in the range of 0.05 to 1 µM in assay [1], 0.05 to 1 µM in assay [2] and 1 to 30 µM in assay [3].

On to `CCNC(=O)C[C@@H]1N=C(c2ccc(Cl)cc2)c2cc(OCCCCC(=O)Nc3cccc(O)c3O)ccc2-n2c(C)nnc21` [BRD-N-23, (S)-5-((6-(4-chlorophenyl)-4-(2-(ethylamino)-2-oxoethyl)-1-methyl-4H-benzo[f][1,2,4]triazolo[4,3-a][1,4]diazepin-8-yl)oxy)-N-(2,3-dihydroxyphenyl)pentanamide], for which the IC50 in assay [1], in assay [2] and in assay [3] was 0.05 to 1 µM each time.

Take `COc1ccc2c(c1)C(c1ccc(Cl)cc1)=N[C@@H](CC(=O)NCCNC(=O)c1cccc(-c3cccc(B(O)O)c3)c1)c1nnc(C)n1-2` [BRD-E-31, (3′-((2-(2-((4S)-6-(4-chlorophenyl)-8-methoxy-1-methyl-4H-benzo[f][1,2,4]triazolo[4,3-a][1,4]diazepin-4-yl)acetamido)ethyl)carbamoyl)-[1,1′-biphenyl]-3-yl)boronic acid]: the concentration for half-maximal inhibition (IC50) in assay [1] (setting [7]), in assay [2] (setting [8]) and in assay [3] (setting [9]) was 0.05 to 1 µM in each case.

In the case of `COc1ccc2c(c1)C(c1ccc(Cl)cc1)=N[C@@H](CC(=O)NCc1cccc(O)c1O)c1nnc(C)n1-2` [BRD-N-11, (S)-2-(6-(4-chlorophenyl)-8-methoxy-1-methyl-4H-benzo[f][1,2,4]triazolo[4,3-a][1,4]diazepin-4-yl)-N-(2,3-dihydroxybenzyl)acetamide], the IC50 in assay [1] (setting [4]), in assay [2] (setting [5]) and in assay [3] (setting [6]) was 0.05 to 1 µM each time.

As for `COc1ccc2c(c1)C(c1ccc(Cl)cc1)=N[C@@H](CC(=O)NCCNC(=O)/C=C/c1ccc(B(O)O)cc1)c1nnc(C)n1-2` [BRD-E-29, (4-((E)-3-((2-(2-((4S)-6-(4-chlorophenyl)-8-methoxy-1-methyl-4H-benzo[f][1,2,4]triazolo[4,3-a][1,4]diazepin-4-yl)acetamido)ethyl)amino)-3-oxoprop-1-en-1-yl)phenyl)boronic acid], the IC50 in assay [1] (setting [7]), in assay [2] (setting [8]) and in assay [3] (setting [9]) was 0.05 to 1 µM in each case.

As to `COc1ccc2c(c1)C(c1ccc(Cl)cc1)=N[C@@H](CC(=O)NCCNC(=O)Cc1ccc(B(O)O)cc1)c1nnc(C)n1-2` [BRD-E-27, (4-(2-((2-(2-((4S)-6-(4-chlorophenyl)-8-methoxy-1-methyl-4H-benzo[f][1,2,4]triazolo[4,3-a][1,4]diazepin-4-yl)acetamido)ethyl)amino)-2-oxoethyl)phenyl)boronic acid], the concentration for half-maximal inhibition (IC50) in assay [1] (setting [7]) and in assay [2] (setting [8]) was 1 to 30 µM each time.

Turning to `CCNC(=O)C[C@@H]1N=C(c2ccc(Cl)cc2)c2cc(OCCCNC(=O)c3ccc(O)c(O)c3)ccc2-n2c(C)nnc21` [BRD-N-26, (S)—N-(3-((6-(4-chlorophenyl)-4-(2-(ethylamino)-2-oxoethyl)-1-methyl-4H-benzo[f][1,2,4]triazolo[4,3-a][1,4]diazepin-8-yl)oxy)propyl)-3,4-dihydroxybenzaamide], the IC50 in assay [1] (setting [4]), in assay [2] (setting [5]) and in assay [3] (setting [6]) was 1 to 30 µM throughout.

Consider `COc1ccc2c(c1)C(c1ccc(Cl)cc1)=N[C@@H](CC(=O)NCCNC(=O)c1cccc(B(O)O)c1)c1nnc(C)n1-2` [BRD-E-02, (3-((2-(2-((4S)-6-(4-chlorophenyl)-8-methoxy-1-methyl-4H-benzo[f][1,2,4]triazolo[4,3-a][1,4]diazepin-4-yl)acetamido)ethyl)carbamoyl)phenyl)boronic acid], for which the concentration for half-maximal inhibition (IC50) in assay [1], in assay [2] and in assay [3] was 0.05 to 1 µM throughout.

For `CCNC(=O)C[C@@H]1N=C(c2ccc(Cl)cc2)c2cc(OCCNC(=O)c3ccc(B(O)O)cc3)ccc2-n2c(C)nnc21` [BRD-E-22, (S)-(4-((2-((6-(4-chlorophenyl)-4-(2-(ethylamino)-2-oxoethyl)-1-methyl-4H-benzo[f][1,2,4]triazolo[4,3-a]diazepin-8-yl)oxy)ethyl)carbamoyl)phenyl)boronic acid], the IC50 in assay [1] (setting [7]), in assay [2] (setting [8]) and in assay [3] (setting [9]) was 0.05 to 1 µM in each case.

For `COc1ccc2c(c1)C(c1ccc(Cl)cc1)=N[C@@H](CC(=O)NCCNC(=O)c1cccc(O)c1O)c1nnc(C)n1-2` [BRD-N-02, N-(2-(2-((4S)-6-(4-chlorophenyl)-8-methoxy-1-methyl-4H-benzo[f][1,2,4]triazolo[4,3-a][1,4]diazepin-4-yl)acetamido)ethyl)-2,3-dihydroxybenzamide], the IC50 in assay [1] (setting [4]), in assay [2] (setting [5]) and in assay [3] (setting [6]) was 0.05 to 1 µM in each case.

Consider `COc1ccc2c(c1)C(c1ccc(Cl)cc1)=N[C@@H](CC(=O)NCCCCNC(=O)c1cccc(B(O)O)c1)c1nnc(C)n1-2` [BRD-E-06, (3-((4-(2-((4S)-6-(4-chlorophenyl)-8-methoxy-1-methyl-4H-benzo[f][1,2,4]triazolo[4,3-a][1,4]diazepin-4-yl)acetamido)butyl)carbamoyl)phenyl)boronic acid], for which the half-inhibitory concentration (IC50) in assay [1] (setting [7]), in assay [2] (setting [8]) and in assay [3] (setting [9]) was 0.05 to 1 µM each time.

On to `CCNC(=O)C[C@@H]1N=C(c2ccc(Cl)cc2)c2cc(OCCNC(=O)c3cccc(B(O)O)c3)ccc2-n2c(C)nnc21` [BRD-E-21, (S)-(3-((2-((6-(4-chlorophenyl)-4-(2-(ethylamino)-2-oxoethyl)-1-methyl-4H-benzo[f][1,2,4]triazolo[4,3-a]diazepin-8-yl)oxy)ethyl)carbamoyl)phenyl)boronic acid], for which the IC50 in assay [1] (setting [7]), in assay [2] (setting [8]) and in assay [3] (setting [9]) was 0.05 to 1 µM in each case.

Consider `COc1ccc2c(c1)C(c1ccc(Cl)cc1)=N[C@@H](CC(=O)NCCCCCNC(=O)c1cccc(B(O)O)c1)c1nnc(C)n1-2` [BRD-E-08, (3-((5-(2-((4S)-6-(4-chlorophenyl)-8-methoxy-1-methyl-4H-benzo[f][1,2,4]triazolo[4,3-a][1,4]diazepin-4-yl)acetamido)pentyl)carbamoyl)phenyl)-boronic acid], for which the IC50 in assay [1] (setting [7]), in assay [2] (setting [8]) and in assay [3] (setting [9]) was 0.05 to 1 µM in each case.

Take `COc1ccc2c(c1)C(c1ccc(Cl)cc1)=N[C@@H](CC(=O)NCCCCCNC(=O)c1cccc(O)c1O)c1nnc(C)n1-2` [BRD-N-08, N-(5-(2-((4S)-6-(4-chlorophenyl)-8-methoxy-1-methyl-4H-benzo[f][1,2,4]triazolo[4,3-a][1,4]diazepin-4-yl)acetamido)pentyl)-2,3-dihydroxybenzamide]: the 50% inhibitory concentration (IC50) in assay [1] (setting [4]), in assay [2] (setting [5]) and in assay [3] (setting [6]) was 0.05 to 1 µM in each case.

A word on the IC50: it is the point on the concentration scale where inhibition reaches its midpoint.

The values above are taken from patent publication US20140243286A1, “BROMODOMAIN LIGANDS CAPABLE OF DIMERIZING IN AN AQUEOUS SOLUTION, AND METHODS OF USING SAME” (Coferon, Inc., priority 2011, published 2014).
